According to BindingDB's records for patent US20260049071 (Beyang Therapeutics Co., 2026):
pIC50: −log10 of the molar value.

Tests used:
Experiment in all cases: Testing of the Ability of Compounds to Inhibit VEGFR and EGFR Kinase
[1] = molecular target: Epidermal growth factor receptor (Homo sapiens, UniProt P00533)
Procedure: (§1) This assay directly monitored the ability of compounds to inhibit kinase phosphorylation by measuring non-phosphorylated and phosphorylated substrates in kinase reactions by using Mobility Shift Assays/IMAP™ analysis. Test Protocol and Procedures: Add the kinase and DTT to 1× kinase buffer to form a 2.5× kinase solution; transfer 10 μL of 2.5× kinase solution to a 384-well reaction plate and add 1× kinase buffer to negative control wells. Incubate the plate for 10 min at room temperature; add FAM-labeled peptides, MgCl2, ATP and other reagents to 1× kinase buffer to form a 2.5× substrate solution; transfer 10 μL of the above 2.5× substrate solution to the 384-well reaction plate; incubate the plate at 28° C. for different times,and add 25 μL of stop solution to the 384-well reaction plate to stop the reaction. Read the conversion ratio data on CaliperEZ Reader II.

[2] = molecular target: Vascular endothelial growth factor receptor 1 (Homo sapiens, UniProt P17948)
Procedure: as §1

[3] = molecular target: Vascular endothelial growth factor receptor 3 (Homo sapiens, UniProt P35916)
Procedure: as §1

Sequence of Vascular endothelial growth factor receptor 1 (P17948 whole entry): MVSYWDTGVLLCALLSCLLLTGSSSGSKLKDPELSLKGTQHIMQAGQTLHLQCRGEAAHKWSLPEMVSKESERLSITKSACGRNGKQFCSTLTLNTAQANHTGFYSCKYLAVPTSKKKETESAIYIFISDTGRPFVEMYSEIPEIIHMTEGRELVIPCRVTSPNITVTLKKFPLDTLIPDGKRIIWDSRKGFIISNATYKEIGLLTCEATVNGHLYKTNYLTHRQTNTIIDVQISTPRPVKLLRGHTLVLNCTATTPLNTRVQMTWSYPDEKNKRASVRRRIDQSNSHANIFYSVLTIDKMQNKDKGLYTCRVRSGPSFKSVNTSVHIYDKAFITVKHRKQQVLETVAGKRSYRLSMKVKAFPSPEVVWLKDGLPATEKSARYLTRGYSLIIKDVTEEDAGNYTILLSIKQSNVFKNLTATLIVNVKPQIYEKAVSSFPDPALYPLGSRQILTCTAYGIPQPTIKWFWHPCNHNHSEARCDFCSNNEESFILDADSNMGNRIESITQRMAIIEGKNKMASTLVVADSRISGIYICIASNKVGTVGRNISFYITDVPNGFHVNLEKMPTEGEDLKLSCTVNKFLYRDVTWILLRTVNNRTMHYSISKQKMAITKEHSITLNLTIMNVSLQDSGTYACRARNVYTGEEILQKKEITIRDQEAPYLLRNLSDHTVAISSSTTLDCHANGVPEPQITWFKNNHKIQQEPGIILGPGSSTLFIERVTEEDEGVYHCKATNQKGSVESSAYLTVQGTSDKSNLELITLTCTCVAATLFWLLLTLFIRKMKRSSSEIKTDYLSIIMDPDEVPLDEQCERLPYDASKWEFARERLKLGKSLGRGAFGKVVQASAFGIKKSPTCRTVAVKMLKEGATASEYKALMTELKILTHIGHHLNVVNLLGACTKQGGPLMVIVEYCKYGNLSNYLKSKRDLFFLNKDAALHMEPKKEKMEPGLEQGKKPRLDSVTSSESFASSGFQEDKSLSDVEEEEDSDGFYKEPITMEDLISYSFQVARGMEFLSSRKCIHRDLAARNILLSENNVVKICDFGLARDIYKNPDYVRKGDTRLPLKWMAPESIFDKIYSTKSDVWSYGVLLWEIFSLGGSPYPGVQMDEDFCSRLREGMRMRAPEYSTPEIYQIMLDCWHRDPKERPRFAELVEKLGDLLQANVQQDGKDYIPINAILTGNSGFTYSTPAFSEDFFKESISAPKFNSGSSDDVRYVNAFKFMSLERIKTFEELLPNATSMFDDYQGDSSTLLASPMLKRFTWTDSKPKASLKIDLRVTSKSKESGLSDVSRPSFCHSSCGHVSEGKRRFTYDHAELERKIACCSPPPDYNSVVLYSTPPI
Sequence of Vascular endothelial growth factor receptor 3 (P35916 whole entry): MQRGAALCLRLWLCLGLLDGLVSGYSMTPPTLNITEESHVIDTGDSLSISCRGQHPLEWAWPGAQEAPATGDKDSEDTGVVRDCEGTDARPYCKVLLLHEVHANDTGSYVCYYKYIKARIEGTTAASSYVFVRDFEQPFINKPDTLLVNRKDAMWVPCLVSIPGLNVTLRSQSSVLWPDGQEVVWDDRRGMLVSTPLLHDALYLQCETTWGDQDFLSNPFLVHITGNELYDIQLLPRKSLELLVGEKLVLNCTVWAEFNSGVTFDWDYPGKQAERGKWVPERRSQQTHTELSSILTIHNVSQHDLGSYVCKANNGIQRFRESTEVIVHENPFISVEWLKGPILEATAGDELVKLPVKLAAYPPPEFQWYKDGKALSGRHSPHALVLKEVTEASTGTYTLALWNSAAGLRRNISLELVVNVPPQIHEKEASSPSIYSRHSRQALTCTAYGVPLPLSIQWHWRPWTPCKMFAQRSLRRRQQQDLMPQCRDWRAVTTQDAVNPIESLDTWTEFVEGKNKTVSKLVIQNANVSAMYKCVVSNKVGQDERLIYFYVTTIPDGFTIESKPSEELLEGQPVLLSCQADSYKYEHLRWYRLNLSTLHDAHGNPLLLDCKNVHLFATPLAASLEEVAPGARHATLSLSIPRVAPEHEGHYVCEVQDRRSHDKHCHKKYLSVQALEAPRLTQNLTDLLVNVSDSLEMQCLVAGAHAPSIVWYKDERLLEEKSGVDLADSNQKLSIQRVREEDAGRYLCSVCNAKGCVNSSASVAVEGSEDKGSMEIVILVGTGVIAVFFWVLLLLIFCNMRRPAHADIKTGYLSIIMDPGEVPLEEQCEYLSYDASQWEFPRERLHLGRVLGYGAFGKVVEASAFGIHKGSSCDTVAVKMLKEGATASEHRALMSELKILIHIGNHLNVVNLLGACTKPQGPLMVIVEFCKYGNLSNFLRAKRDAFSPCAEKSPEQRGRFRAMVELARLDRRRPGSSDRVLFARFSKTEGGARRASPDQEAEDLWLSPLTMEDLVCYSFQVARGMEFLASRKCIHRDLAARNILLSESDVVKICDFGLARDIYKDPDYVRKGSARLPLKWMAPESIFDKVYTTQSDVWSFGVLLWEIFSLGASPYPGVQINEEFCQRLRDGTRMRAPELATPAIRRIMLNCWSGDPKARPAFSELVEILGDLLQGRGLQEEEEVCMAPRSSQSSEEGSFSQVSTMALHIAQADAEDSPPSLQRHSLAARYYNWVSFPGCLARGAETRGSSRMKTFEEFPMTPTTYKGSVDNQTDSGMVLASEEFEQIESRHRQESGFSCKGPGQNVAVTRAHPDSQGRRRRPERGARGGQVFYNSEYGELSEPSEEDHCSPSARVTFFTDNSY
Sequence of Epidermal growth factor receptor (P00533 whole entry): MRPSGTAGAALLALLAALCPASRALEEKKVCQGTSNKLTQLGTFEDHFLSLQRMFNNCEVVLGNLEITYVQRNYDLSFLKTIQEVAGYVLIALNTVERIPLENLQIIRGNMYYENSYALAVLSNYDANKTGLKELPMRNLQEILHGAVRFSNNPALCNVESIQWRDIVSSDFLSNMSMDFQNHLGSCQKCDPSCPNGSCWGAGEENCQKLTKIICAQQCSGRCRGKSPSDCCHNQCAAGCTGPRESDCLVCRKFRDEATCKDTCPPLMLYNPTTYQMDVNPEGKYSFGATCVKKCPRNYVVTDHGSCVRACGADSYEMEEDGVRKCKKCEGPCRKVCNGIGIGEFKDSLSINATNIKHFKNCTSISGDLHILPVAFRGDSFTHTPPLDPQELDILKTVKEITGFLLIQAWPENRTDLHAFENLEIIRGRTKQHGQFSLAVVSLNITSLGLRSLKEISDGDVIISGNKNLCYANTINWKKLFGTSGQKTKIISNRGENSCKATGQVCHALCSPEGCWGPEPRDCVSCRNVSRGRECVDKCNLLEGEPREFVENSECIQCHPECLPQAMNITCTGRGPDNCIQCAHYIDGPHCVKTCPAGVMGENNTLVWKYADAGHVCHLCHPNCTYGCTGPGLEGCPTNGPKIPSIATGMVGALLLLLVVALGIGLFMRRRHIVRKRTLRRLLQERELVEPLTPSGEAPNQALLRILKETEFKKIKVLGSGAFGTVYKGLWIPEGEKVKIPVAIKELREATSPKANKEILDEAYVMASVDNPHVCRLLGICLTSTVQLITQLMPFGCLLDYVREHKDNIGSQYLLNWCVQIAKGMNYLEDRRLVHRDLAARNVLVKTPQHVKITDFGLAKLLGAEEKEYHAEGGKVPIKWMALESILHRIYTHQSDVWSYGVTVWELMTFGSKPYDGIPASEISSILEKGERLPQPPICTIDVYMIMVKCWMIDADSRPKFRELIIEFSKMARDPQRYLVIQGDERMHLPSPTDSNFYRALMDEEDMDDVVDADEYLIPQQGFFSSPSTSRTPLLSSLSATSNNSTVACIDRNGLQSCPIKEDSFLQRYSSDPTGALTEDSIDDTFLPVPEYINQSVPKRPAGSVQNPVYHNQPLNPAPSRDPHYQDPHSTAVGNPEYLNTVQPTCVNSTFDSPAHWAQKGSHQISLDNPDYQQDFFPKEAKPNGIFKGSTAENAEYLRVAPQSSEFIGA

For NC(=O)c1ccccc1Sc1ccc2c(/C=C/c3cnn(CCCN4CCCC4)c3)n[nH]c2c1 [US20260049071, No. I-44], the IC50 [1] was “in the range around 33000 nM”, the pIC50 [2] was 8.00 to 9.00 and the pIC50 [3] was 7.00 to 8.00.
